From ChEMBL document CHEMBL1201862, “PubChem BioAssay data set” (2004) come the findings set out here.

Each structure is given as a SMILES string.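 Growth conditions: 96-well plates. Treatment: test compound, 48 hours, 5 concentrations. Analysis: linear interpolation between bracketing concentrations; unreached endpoints set to highest concentration. At the GI50, growth is halved.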 The source made the active and inactive calls. Rule as the data show it: active = GI50 up to about 1.1 µM and inactive = higher. A value given as a limit tells only on which side of the number the result lay.

Some test systems named below: SF-539; SF-295; HCT-15; 786-0; SK-OV-3; RXF 393; OVCAR-8; KM12; TK-10; SN12C; MOLT-4; K562; A498; NCI-H460; CCRF-CEM; NCI-H23; SR; HOP-92.
Common to all, as to experiment: growth of human tumour cells (NCI), 48 h

For the compound `CCN(C1=CC(=O)NC2CCCCN12)c1ccccc1` (centres undefined), the GI50 in the experiment with SF-539 was > 100 µM (inactive); with SF-295, > 100 µM (inactive); in the experiment with HCT-15, greater than 100 µM; with 786-0, > 100 µM (inactive); in the experiment with SK-OV-3 it was > 100 µM (inactive); in the experiment with RXF 393, > 100 µM (inactive). Further, the GI50 in the experiment on OVCAR-8, in the experiment on KM12, in the experiment with TK-10, in the experiment with SN12C, with MOLT-4 and with K562 was > 100 µM (inactive) throughout. Further, the GI50 with A498, in the experiment with NCI-H460, in the experiment with CCRF-CEM and with NCI-H23 was > 100 µM (inactive) throughout.

For `COc1ccc(NC(=O)/C(Cc2cc(=O)oc3cc(O)ccc23)=N\NC(C)(C)C)c(OC)c1`, the GI50 in the experiment on SF-539 is > 100 µM (inactive); in the experiment with SF-295 it was > 100 µM (inactive); in the experiment on SR, > 100 µM (inactive); in the experiment on HCT-15, greater than 100 µM; in the experiment on HOP-92, 53 µM (inactive); with 786-0, > 100 µM (inactive). In addition, the GI50 with SK-OV-3, with OVCAR-8, in the experiment with KM12, in the experiment on TK-10, in the experiment on SN12C and in the experiment on MOLT-4 was > 100 µM (inactive) each time. The GI50 in the experiment on K562 is > 100 µM (inactive); in the experiment with A498 it was 22.8 µM (inactive); in the experiment on NCI-H460, > 100 µM (inactive); in the experiment on CCRF-CEM it was > 100 µM (inactive); in the experiment on NCI-H23, > 100 µM (inactive).

Turning to `CC12CCCCC1(C)C2Sc1ccccc1` (centres undefined), the GI50 with SF-539 is > 100 µM (inactive); with SF-295, 35.6 µM (inactive); in the experiment with HCT-15, 55.5 µM; in the experiment on HOP-92, 26.7 µM (inactive); in the experiment with 786-0, 44.8 µM (inactive); with SK-OV-3, > 100 µM (inactive). The GI50 in the experiment on RXF 393 was 23.9 µM (inactive); in the experiment on OVCAR-8 it was 42 µM (inactive); with KM12 it was 49.3 µM (inactive); in the experiment on TK-10, > 100 µM (inactive); in the experiment on SN12C it was 64.3 µM (inactive); in the experiment with MOLT-4, 19.1 µM (inactive). Further, the GI50 in the experiment with K562 is 13.5 µM (inactive); in the experiment on A498 it was > 50.4 µM (inactive); in the experiment with NCI-H460 it was > 68.4 µM (inactive); in the experiment with CCRF-CEM it was 19.7 µM (inactive); in the experiment with NCI-H23, 52.6 µM (inactive).

Consider `COc1ccc(NC(=O)C(=O)C2CNC(=O)NC2=O)c(OC)c1` (centres undefined), for which the GI50 was > 100 µM (inactive) in the experiment on SF-539; > 100 µM (inactive) in the experiment on SF-295; > 100 µM (inactive) with SR; greater than 100 µM in the experiment on HCT-15; > 100 µM (inactive) with HOP-92; > 100 µM (inactive) in the experiment with 786-0. The GI50 with SK-OV-3, with RXF 393, in the experiment with OVCAR-8, in the experiment on KM12, with TK-10 and with SN12C was > 100 µM (inactive) each time. Also, the GI50 in the experiment with MOLT-4, in the experiment with K562, in the experiment on NCI-H460, in the experiment on CCRF-CEM and with NCI-H23 was > 100 µM (inactive) each time.

Regarding `C(=N\CC/N=C/c1cccc2ccccc12)/c1cccc2ccccc12`, the GI50 is > 100 µM (inactive) in the experiment on SF-539; > 100 µM (inactive) in the experiment on SF-295; > 100 µM (inactive) with SR; greater than 100 µM in the experiment on HCT-15; < 0.01 µM (active) in the experiment with HOP-92; > 100 µM (inactive) with 786-0. The GI50 with SK-OV-3 is 22.1 µM (inactive); in the experiment on RXF 393, > 100 µM (inactive); in the experiment on OVCAR-8 it was > 100 µM (inactive); with KM12 it was > 100 µM (inactive); with TK-10, > 100 µM (inactive); in the experiment with SN12C, > 100 µM (inactive). In addition, the GI50 in the experiment on MOLT-4, in the experiment with K562, in the experiment on NCI-H460 and in the experiment with NCI-H23 was > 100 µM (inactive) each time.

Turning to `Cc1ccc(C(=O)c2nnc(C(=O)c3ccc(C)cc3)nn2)cc1`, the GI50 in the experiment on SF-539 was 38.9 µM (inactive); in the experiment on SF-295 it was 52.8 µM (inactive); in the experiment on SR, 5.45 µM (inactive); in the experiment with HCT-15 it was 76 µM; in the experiment with HOP-92, 32.1 µM (inactive); with 786-0 it was 28.2 µM (inactive). The GI50 was 19.3 µM (inactive) in the experiment with SK-OV-3; 34.9 µM (inactive) in the experiment with OVCAR-8; 62.7 µM (inactive) in the experiment on KM12; 78.3 µM (inactive) with TK-10; 45.3 µM (inactive) with SN12C; 34.1 µM (inactive) with MOLT-4. The GI50 is 23.3 µM (inactive) with K562, 18.4 µM (inactive) in the experiment on NCI-H460, 18.8 µM (inactive) with CCRF-CEM and > 100 µM (inactive) in the experiment with NCI-H23.

`Cc1cc2ncn(-c3nc4ccccc4nc3C(C#N)S(C)(=O)=O)c2cc1C` (centres undefined): the GI50 in the experiment with SF-539 is > 100 µM (inactive); with SR, > 100 µM (inactive); in the experiment with HCT-15, greater than 100 µM; in the experiment on 786-0, > 100 µM (inactive); with SK-OV-3, 0.946 µM (active); in the experiment on OVCAR-8, > 100 µM (inactive). Besides, the GI50 with KM12 is > 100 µM (inactive); in the experiment with TK-10 it was > 100 µM (inactive); with SN12C, > 100 µM (inactive); in the experiment with MOLT-4, > 100 µM (inactive); in the experiment with K562 it was > 100 µM (inactive); in the experiment with A498, 19.7 µM (inactive). For the same compound, the GI50 in the experiment on NCI-H460, in the experiment on CCRF-CEM and with NCI-H23 was > 100 µM (inactive) each time.

Turning to `CCN(CC)CCCCC1CCN(CC(=O)N2c3cc(Cl)ccc3NC(=O)CC2C)CC1` (centres undefined), the GI50 is > 100 µM (inactive) in the experiment on SF-295; 74 µM (inactive) in the experiment with SR; greater than 100 µM in the experiment with HCT-15; > 100 µM (inactive) in the experiment with HOP-92; > 100 µM (inactive) in the experiment on 786-0; > 100 µM (inactive) with SK-OV-3. The GI50 with SN12C is > 100 µM (inactive); in the experiment on MOLT-4 it was > 100 µM (inactive); in the experiment on K562, 79.6 µM (inactive); in the experiment with A498 it was > 100 µM (inactive); with NCI-H460 it was > 100 µM (inactive); with CCRF-CEM it was > 100 µM (inactive). Besides, in the experiment on NCI-H23, the GI50 was > 100 µM (inactive).

In the case of `CCCCNC(=O)C1C(=O)N(CCCC)C(=O)/C1=N\N` (centres undefined), the GI50 in the experiment on SF-539 was > 100 µM (inactive); with SF-295, > 100 µM (inactive); in the experiment with HCT-15, greater than 100 µM; in the experiment on HOP-92, > 100 µM (inactive); in the experiment on 786-0 it was > 100 µM (inactive); in the experiment on SK-OV-3, > 100 µM (inactive). The GI50 with RXF 393, with OVCAR-8, in the experiment on KM12, in the experiment on TK-10, in the experiment with SN12C and with MOLT-4 was > 100 µM (inactive) each time. Besides, the GI50 in the experiment with K562, with A498, in the experiment with NCI-H460 and in the experiment on NCI-H23 was > 100 µM (inactive) each time.

Regarding `COC(=O)C1(O)CC(=O)CCC1c1ccc(OC)cc1` (centres undefined), the GI50 in the experiment with SF-539 was > 100 µM (inactive); with SF-295, > 100 µM (inactive); in the experiment on SR, > 100 µM (inactive); with HCT-15, greater than 100 µM; in the experiment on HOP-92, > 100 µM (inactive); in the experiment on 786-0 it was > 100 µM (inactive). Also, the GI50 in the experiment on SK-OV-3, in the experiment on OVCAR-8, with KM12, with TK-10, with SN12C and in the experiment with MOLT-4 was > 100 µM (inactive) each time. Also, the GI50 in the experiment on K562, in the experiment with A498, in the experiment on NCI-H460, in the experiment with CCRF-CEM and in the experiment with NCI-H23 was > 100 µM (inactive) each time.

For `O=C(O)/C(=C/c1c(O)ccc2ccccc12)c1csc(-c2nc(/C(=C\c3c(O)ccc4ccccc34)C(=O)O)cs2)n1`, the GI50 in the experiment on SF-539 is 6.17 µM (inactive); in the experiment on SF-295, 11.2 µM (inactive); in the experiment on HCT-15, 14.4 µM; in the experiment with HOP-92, 1.86 µM (inactive); with 786-0, 13.5 µM (inactive); in the experiment with SK-OV-3 it was 12.3 µM (inactive). Also, the GI50 is 3.21 µM (inactive) with RXF 393; 22.2 µM (inactive) with OVCAR-8; 19.8 µM (inactive) with KM12; 29 µM (inactive) with TK-10; 13.4 µM (inactive) in the experiment on MOLT-4; 15.8 µM (inactive) in the experiment on K562. For the same compound, the GI50 was 20.7 µM (inactive) in the experiment on A498, 19 µM (inactive) in the experiment with NCI-H460, 10.7 µM (inactive) with CCRF-CEM and 9.55 µM (inactive) in the experiment with NCI-H23.

As to `COc1ccc2[nH]c(=O)cc(C)c2c1[N+](=O)[O-]`, the GI50 in the experiment on SF-539 is > 100 µM (inactive); in the experiment with SF-295 it was > 100 µM (inactive); in the experiment on HCT-15, greater than 100 µM; in the experiment on HOP-92, 32.4 µM (inactive); with 786-0, > 100 µM (inactive); in the experiment with SK-OV-3, > 100 µM (inactive). Moreover, the GI50 is > 10 µM (inactive) in the experiment on RXF 393; > 100 µM (inactive) with OVCAR-8; > 100 µM (inactive) with KM12; > 100 µM (inactive) with TK-10; > 100 µM (inactive) with SN12C; > 100 µM (inactive) in the experiment with MOLT-4. The GI50 was > 100 µM (inactive) in the experiment on K562; 54.8 µM (inactive) in the experiment on A498; > 100 µM (inactive) in the experiment with NCI-H460; > 100 µM (inactive) with CCRF-CEM; > 100 µM (inactive) in the experiment on NCI-H23.

For the compound `C=CCC1OC(C)(C)Oc2ccc(OCOCCOC)cc21` (centres undefined), the GI50 was > 100 µM (inactive) in the experiment with SF-539; > 100 µM (inactive) in the experiment with SF-295; greater than 100 µM with HCT-15; > 100 µM (inactive) in the experiment on HOP-92; > 100 µM (inactive) in the experiment on 786-0; > 100 µM (inactive) in the experiment on SK-OV-3. The GI50 in the experiment on RXF 393, in the experiment on OVCAR-8, with KM12, in the experiment with TK-10, with SN12C and in the experiment with MOLT-4 was > 100 µM (inactive) in each case. In addition, the GI50 in the experiment with K562, in the experiment on A498, in the experiment on NCI-H460 and with NCI-H23 was > 100 µM (inactive) in each case.
